Results as given in US6274715A, “Tricyclic erythromycin derivatives” (priority 1997, dated 2001).
Converted amounts (≈) assume the structure as drawn. Read-outs that look alike come from different tables or passages of the source.

Key:
Type in all cases: cell-based
[1] = test system: STR[…] 508; experiment: In vitro antibacterial activity, MIC, BHI agar dilution
In short: (§1)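 BHI agar dilution, 12 plates; inoculum 1:100 (1:10 slow-growing strains), Steers replicator; 35-37° C, 20-24 h. MIC = lowest conc. with no growth/slight haze/sparse colonies vs growth control, visual read. Erythromycin A reference plate.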

[2] = test system: M[…] ATCC 4698; experiment: as above
In short: as §1

[3] = test system: EN[…] ATCC 8043; experiment: as above; conditions: E. faecium ATCC 8043, unit assumed
In short: as §1

[4] = test system: M[…] ATCC 9341; experiment: as above
In short: as §1

[5] = test system: ESCHERICHIA COLI JUHL; conditions: E. coli JUHL; BHI agar; unit assumed
[6] = test system: STAPHYLOCOCCUS AUREUS NCTC10649M; experiment: In vitro antibacterial activity, MIC, BHI agar dilution; conditions: S. aureus NCTC10649M
[7] = test system: PSEUDOMONAS AERUGINOSA DPHD-2862; experiment: as above; conditions: P. aeruginosa DPHD-2862, unit assumed
[8] = test system: STAPHYLOCOCCUS AUREUS ATCC 6538P; experiment: as above; conditions: S. aureus ATCC 6538P, 35-37° C., 20 to 24 hours, unit assumed
[9] = test system: PSEUDOMONAS AERUGINOSA 5007; experiment: as above
[10] = test system: ESCHERICHIA COLI DC-2; experiment: as above
[11] = test system: PSEUDOMONAS AERUGINOSA K799/WT; experiment: as above; conditions: P. aeruginosa K799/WT
[12] = test system: STREPTOCOCCUS PYOGENES EES61; experiment: as above; conditions: S. pyogenes EES61, unit assumed
[13] = test system: ESCHERICHIA COLI KNK 437; conditions: E. coli KNK 437, BHI agar, unit assumed
[14] = test system: ESCHERICHIA COLI SS; experiment: In vitro antibacterial activity, MIC, BHI agar dilution; conditions: E. coli SS, unit assumed
[15] = test system: PSEUDOMONAS AERUGINOSA BMH10; experiment: as above
[16] = test system: STREPTOCOCCUS BOVIS A-5169; experiment: as above
[17] = test system: STAPHYLOCOCCUS AUREUS A5177; experiment: as above; conditions: S. aureus A5177, unit assumed
[18] = test system: PROVIDENCIA STUARTII CMX 640; conditions: P. stuartii CMX 640; BHI agar; unit assumed
[19] = test system: ACINETOBACTER CALCOACETICUS CMX 669; experiment: In vitro antibacterial activity, MIC, BHI agar dilution; conditions: A. calcoaceticus CMX 669, unit assumed
[20] = test system: KLEBSIELLA PNEUMONIAE ATCC 8045; experiment: as above
[21] = test system: STAPHYLOCOCCUS AUREUS CMX 553; experiment: as above
[22] = test system: CANDIDA ALBICANS CCH 442; experiment: as above; conditions: C. albicans CCH 442, unit assumed
[23] = test system: STAPHYLOCOCCUS AUREUS 1775; experiment: as above; conditions: S. aureus 1775, unit assumed
[24] = test system: ENTEROBACTER AEROGENES ATCC 13048; experiment: as above
[25] = test system: PSEUDOMONAS CEPACIA 296I; experiment: as above; conditions: P. cepacia 296I, unit assumed
[26] = test system: STREPTOCOCCUS PYOGENES 930; experiment: as above; conditions: S. pyogenes 930, unit assumed
[27] = test system: STREPTOCOCCUS PYOGENES PIU 2548; experiment: as above
[28] = test system: STAPHYLOCOCCUS AUREUS CMX 642A; experiment: as above; conditions: S. aureus CMX 642A
[29] = test system: PSEUDOMONAS AERUGINOSA K799/61; experiment: as above
[30] = test system: STAPHYLOCOCCUS AUREUS A-5278; experiment: as above; conditions: S. aureus A-5278, unit assumed
[31] = test system: ESCHERICHIA COLI H560; experiment: as above; conditions: E. coli H560, unit assumed
[32] = test system: PSEUDOMONAS AERUGINOSA DPHD-5263; experiment: as above; conditions: P. aeruginosa DPHD-5263, unit assumed
[33] = test system: MYCOBACTERIUM SMEGMATIS ATCC 114; experiment: as above; conditions: M. smegmatis ATCC 114, unit assumed
[34] = test system: STAPHYLOCOCCUS EPIDERMIDIS 3519; conditions: S. epidermidis 3519; BHI agar; unit assumed
[35] = M. luteus ATCC 4698, unit assumed
[36] = M. luteus ATCC 9341, unit assumed
[37] = P. aeruginosa 5007, unit assumed
[38] = P. aeruginosa BMH10, unit assumed
[39] = K. pneumoniae ATCC 8045, unit assumed
[40] = S. aureus CMX 553, unit assumed
[41] = E. aerogenes ATCC 13048, unit assumed
[42] = S. pyogenes PIU 2548, unit assumed
[43] = P. aeruginosa K799/61, unit assumed

SMILES	MIC [3]	MIC [5]	MIC [7]	MIC [8]	MIC [12]	MIC [14]	MIC [17]	MIC [18]	MIC [19]	MIC [22]	MIC [23]	MIC [25]	MIC [26]	MIC [30]	MIC [31]	MIC [32]	MIC [2, 35]	MIC [4, 36]	MIC [33]	MIC ([6]; unit assumed)	further results
CC[C@H]1OC(=O)[C@H](C)C(=O)[C@H](C)[C@@H](O[C@@H]2O[C@H](C)C[C@H](N(C)C)[C@H]2O)[C@](C)(OC)C[C@@H](C)C2=NC3CN(CCCc4ccccc4)CC3N3C(=O)O[C@@]1(C)[C@H]3[C@H]2C (stereo partly drawn) [Example 111]	0.1 µg/mL (≈ 0.125 µM)	100 µg/mL (≈ 125 µM)	> 100 µg/mL	0.2 µg/mL (≈ 0.251 µM)	0.02 µg/mL (≈ 0.0251 µM)	0.39 µg/mL (≈ 0.489 µM)	0.2 µg/mL (≈ 0.251 µM)	> 100 µg/mL	> 100 µg/mL	0.39 µg/mL (≈ 0.489 µM)	> 100 µg/mL	25 µg/mL (≈ 31.4 µM)	50 µg/mL (≈ 62.7 µM)	> 100 µg/mL	50 µg/mL (≈ 62.7 µM)	> 100 µg/mL					MIC ([1]; S. agalactiae CMX 508, listed as Ex 111, unit assumed): 0.05 µg/mL (≈ 0.0627 µM); MIC ([2]; M. luteus ATCC 4698, listed as Ex 111, unit assumed): 0.39 µg/mL (≈ 0.489 µM); MIC ([4]; M. luteus ATCC 9341, listed as Ex 111, unit assumed): 0.05 µg/mL (≈ 0.0627 µM); MIC ([6]; listed as Ex 111, unit assumed): 0.2 µg/mL (≈ 0.251 µM); MIC ([9]; P. aeruginosa 5007, listed as Ex 111, unit assumed): 100 µg/mL (≈ 125 µM); MIC ([10]; E. coli DC-2, listed as Ex 111, unit assumed): 100 µg/mL (≈ 125 µM); MIC ([11]; listed as Ex 111, unit assumed): 1.56 µg/mL (≈ 1.96 µM); MIC ([13]; listed as Ex 111): > 100 µg/mL; MIC ([15]; P. aeruginosa BMH10, listed as Ex 111, unit assumed): > 100 µg/mL; MIC ([16]; S. bovis A-5169, listed as Ex 111, unit assumed): 0.01 µg/mL (≈ 0.0125 µM); MIC ([20]; K. pneumoniae ATCC 8045, listed as Ex 111, unit assumed): > 100 µg/mL; MIC ([21]; S. aureus CMX 553, listed as Ex 111, unit assumed): 0.2 µg/mL (≈ 0.251 µM); MIC ([24]; E. aerogenes ATCC 13048, listed as Ex 111, unit assumed): > 100 µg/mL; MIC ([27]; S. pyogenes PIU 2548, listed as Ex 111, unit assumed): 0.39 µg/mL (≈ 0.489 µM); MIC ([28]; listed as Ex 111, unit assumed): 0.39 µg/mL (≈ 0.489 µM); MIC ([29]; P. aeruginosa K799/61, listed as Ex 111, unit assumed): 50 µg/mL (≈ 62.7 µM)
C#CCN1CC2N=C3[C@H](C)C[C@@](C)(OC)[C@H](O[C@@H]4O[C@H](C)C[C@H](N(C)C)[C@H]4O)[C@@H](C)C(=O)[C@@H](C)C(=O)O[C@H](CC)[C@@]4(C)OC(=O)N(C2C1)[C@@H]4[C@H]3C (stereo partly drawn) [Example 117]	0.2 µg/mL (≈ 0.279 µM)	> 100 µg/mL	> 100 µg/mL	0.78 µg/mL (≈ 1.09 µM)			0.78 µg/mL (≈ 1.09 µM)	> 100 µg/mL	> 100 µg/mL	> 100 µg/mL	> 100 µg/mL	> 100 µg/mL	> 100 µg/mL	> 100 µg/mL	50 µg/mL (≈ 69.7 µM)	> 100 µg/mL	0.39 µg/mL (≈ 0.544 µM)	0.2 µg/mL (≈ 0.279 µM)	3.1 µg/mL (≈ 4.32 µM)	0.78 µg/mL (≈ 1.09 µM)	MIC ([1]; S. agalactiae CMX 508, unit assumed): 0.05 µg/mL (≈ 0.0697 µM); MIC [9, 37]: > 100 µg/mL; MIC ([10]; E. coli DC-2, unit assumed): > 100 µg/mL; MIC ([11]; unit assumed): > 100 µg/mL; MIC [13]: > 100 µg/mL; MIC [15, 38]: > 100 µg/mL; MIC [34]: 1.56 µg/mL (≈ 2.18 µM); MIC ([16]; S. bovis A-5169, unit assumed): 0.05 µg/mL (≈ 0.0697 µM); MIC [20, 39]: > 100 µg/mL; MIC [21, 40]: 0.78 µg/mL (≈ 1.09 µM); MIC [24, 41]: > 100 µg/mL; MIC [27, 42]: 0.78 µg/mL (≈ 1.09 µM); MIC ([28]; unit assumed): 0.78 µg/mL (≈ 1.09 µM); MIC [29, 43]: 3.1 µg/mL (≈ 4.32 µM)
CCC1OC(=O)C(C)C(=O)C(C)C(OC2OC(C)CC(N(C)C)C2O)C(C)(OC)CC(C)C2=NCC(CSc3ccccc3)(CN(C)Cc3ccccc3)N3C(=O)OC1(C)C3C2C (stereo not drawn) [Example 133]	0.1 µg/mL (≈ 0.112 µM)	> 100 µg/mL	> 100 µg/mL	0.78 µg/mL (≈ 0.873 µM)	0.02 µg/mL (≈ 0.0224 µM)	12.5 µg/mL (≈ 14 µM)	0.78 µg/mL (≈ 0.873 µM)	> 100 µg/mL	> 100 µg/mL	50 µg/mL (≈ 56 µM)	25 µg/mL (≈ 28 µM)	> 100 µg/mL	6.2 µg/mL (≈ 6.94 µM)	25 µg/mL (≈ 28 µM)	> 100 µg/mL	> 100 µg/mL	1.56 µg/mL (≈ 1.75 µM)	0.2 µg/mL (≈ 0.224 µM)	0.78 µg/mL (≈ 0.873 µM)	1.56 µg/mL (≈ 1.75 µM)	MIC [9, 37]: > 100 µg/mL; MIC ([10]; E. coli DC-2, unit assumed): > 100 µg/mL; MIC ([11]; unit assumed): > 100 µg/mL; MIC [13]: > 100 µg/mL; MIC [15, 38]: > 100 µg/mL; MIC [34]: 1.56 µg/mL (≈ 1.75 µM); MIC [20, 39]: > 100 µg/mL; MIC [21, 40]: 1.56 µg/mL (≈ 1.75 µM); MIC [24, 41]: > 100 µg/mL; MIC [27, 42]: 1.56 µg/mL (≈ 1.75 µM); MIC ([28]; unit assumed): 1.56 µg/mL (≈ 1.75 µM); MIC [29, 43]: 12.5 µg/mL (≈ 14 µM)
